Measurements from patent publication US5358951A, “Angiotensin II receptor blocking 2, 3, 6 substituted quinazolinones” (American Cyanamid Company, priority 1993, dated 1994).
Structures can show the parent of a compound that is named as a salt.

Test system: vasopressor response of angiotensin II
Assay: AII Challenge: antagonism of angiotensin II vasopressor response;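 as to Response Average Change: post-dose Angiotensin II-evoked rise in systolic blood pressure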
Format: in vivo
Settings: for inhibition in vivo at 0.5 mg/kg: 0.5 mg/kg i.v.; for inhibition in vivo at 0.3 mg/kg: 0.3 mg/kg i.v.
How it was run: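 Conscious male SHR (16-20 weeks) with aortic and caval cannulae received angiotensin II at 0.05 and 0.1 ug/kg i.v. before and 30-300 min after compound dosing (i.v., i.p. or oral). Blockade is expressed as % of each rat's predose rise in systolic pressure.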

[1] = 1 mg/kg P.O., AII 0.05 mcg/kg IV, 30 min post dose, sodium salt
[2] = 1 mg/kg P.O., AII 0.05 mcg/kg IV, 90 min post dose, sodium salt
[3] = 1 mg/kg P.O., AII 0.05 mcg/kg IV, 180 min post dose, sodium salt
[4] = 1 mg/kg P.O., AII 0.05 mcg/kg IV, 240 min post dose, sodium salt
[5] = 1 mg/kg P.O., AII 0.1 mcg/kg IV, 30 min post dose, sodium salt
[6] = 1 mg/kg P.O., AII 0.1 mcg/kg IV, 240 min post dose, sodium salt
[7] = Rattus norvegicus, iv, […], AII 0.1 mcg/kg IV, 90 min post dose

Structure (SMILES): CCCCc1nc2ccc([C@@]3(C)C[C@@H]4CCCN4O3)cc2c(=O)n1Cc1ccc(-c2ccccc2-c2nnn[nH]2)cc1 (relative stereo) [Example 73, Cis-2-Butyl-6-(hexahydro-2-methylpyrrolo[1,2-b]isoxazol-2-yl)-3-[[2'-(1H-(tetrazol-5-yl)[1,1'-biphenyl-4-yl]methyl]-4(3H)-quinazolinone sodium salt]
- % Inhibition [1]: 31%
- Response Average Change [1]: 22.5 mmHg
- Response Average Change (1 mg/kg P.O., AII 0.05 mcg/kg IV, 60 min post dose, sodium salt): 12.5 mmHg
- % Inhibition [2]: 38%
- Response Average Change [2]: 20 mmHg
- Response Average Change (1 mg/kg P.O., AII 0.05 mcg/kg IV, 120 min post dose, sodium salt): 12.5 mmHg
- % Inhibition [3]: 23%
- Response Average Change [3]: 25 mmHg
- % Inhibition [4]: 15%
- Response Average Change [4]: 27.5 mmHg
- Response Average Change (1 mg/kg P.O., AII 0.05 mcg/kg IV, 300 min post dose): 25 mmHg
- % Inhibition [5]: 27%
- Response Average Change [5]: 27.5 mmHg
- Response Average Change (1 mg/kg P.O., AII 0.1 mcg/kg IV, 60 min post dose, sodium salt): 20 mmHg
- Response Average Change (1 mg/kg P.O., AII 0.1 mcg/kg IV, 90 min post dose, sodium salt): 22.5 mmHg
- Response Average Change (1 mg/kg P.O., AII 0.1 mcg/kg IV, 120 min post dose): 22.5 mmHg
- Response Average Change (1 mg/kg P.O., AII 0.1 mcg/kg IV, 180 min post dose, sodium salt): 22.5 mmHg
- % Inhibition [6]: 33%
- Response Average Change [6]: 25 mmHg
- Response Average Change (1 mg/kg P.O., AII 0.1 mcg/kg IV, 300 min post dose): 22.5 mmHg
- % Inhibition (1 mg/kg i.v., AII 0.05 mcg/kg IV, 60 min post dose): 83%
- inhibition in vivo at 0.5 mg/kg (Rattus norvegicus, iv, 0.5 h, AII 0.05 mcg/kg IV, 30 min post dose): 73%
- inhibition in vivo at 0.5 mg/kg (Rattus norvegicus, iv, 0.5 h, AII 0.1 mcg/kg IV, 30 min post dose): 67%
- inhibition in vivo at 1 mg/kg (Rattus norvegicus, iv, 0.5 h, 1 mg/kg i.v., AII 0.05 mcg/kg IV, 30 min post dose): 83%
- inhibition in vivo at 1 mg/kg (Rattus norvegicus, iv, 0.5 h, 1 mg/kg i.v., AII 0.1 mcg/kg IV, 30 min post dose): 74%
- inhibition in vivo at 0.1 mg/kg (Rattus norvegicus, iv, 1 h, 0.1 mg/kg i.v., AII 0.05 mcg/kg IV, 60 min post dose): 40%
- inhibition in vivo at 0.3 mg/kg (Rattus norvegicus, iv, 1 h, AII 0.1 mcg/kg IV, 60 min post dose): 25%
- inhibition in vivo at 0.5 mg/kg (Rattus norvegicus, iv, 1 h, AII 0.05 mcg/kg IV, 60 min post dose): 71%
- inhibition in vivo at 1 mg/kg (Rattus norvegicus, iv, 1 h, 1 mg/kg i.v., AII 0.05 mcg/kg IV, 60 min post dose): 83%
- inhibition in vivo at 1 mg/kg (Rattus norvegicus, iv, 1 h, 1 mg/kg i.v., AII 0.1 mcg/kg IV, 60 min post dose): 65%
- inhibition in vivo at 0.3 mg/kg (Rattus norvegicus, iv, 2 h, AII 0.05 mcg/kg IV, 120 min post dose): 41%
- inhibition in vivo at 0.3 mg/kg (Rattus norvegicus, iv, 2 h, AII 0.1 mcg/kg IV, 120 min post dose): 38%
- inhibition in vivo at 1 mg/kg (Rattus norvegicus, iv, 2 h, 1 mg/kg i.v., AII 0.05 mcg/kg IV, 120 min post dose): 83%
- inhibition in vivo at 1 mg/kg (Rattus norvegicus, iv, 2 h, 1 mg/kg i.v., AII 0.1 mcg/kg IV, 120 min post dose): 86%
- inhibition in vivo at 0.3 mg/kg (Rattus norvegicus, iv, 3 h, AII 0.05 mcg/kg IV, 180 min post dose): 36%
- inhibition in vivo at 1 mg/kg (Rattus norvegicus, iv, 3 h, 1 mg/kg i.v., AII 0.05 mcg/kg IV, 180 min post dose): 72%
- inhibition in vivo at 1 mg/kg (Rattus norvegicus, iv, 3 h, 1 mg/kg i.v., AII 0.1 mcg/kg IV, 180 min post dose): 42%
- inhibition in vivo at 0.3 mg/kg (Rattus norvegicus, iv, 4 h, AII 0.05 mcg/kg IV, 240 min post dose): 23%
- inhibition in vivo at 0.5 mg/kg (Rattus norvegicus, iv, 4 h, AII 0.1 mcg/kg IV, 240 min post dose): 39%
- inhibition in vivo at 1 mg/kg (Rattus norvegicus, iv, 4 h, 1 mg/kg i.v., AII 0.1 mcg/kg IV, 240 min post dose): 74%
- inhibition in vivo at 1 mg/kg (Rattus norvegicus, iv, 5 h, 1 mg/kg i.v., AII 0.05 mcg/kg IV, 300 min post dose): 50%
- inhibition in vivo at 1 mg/kg (Rattus norvegicus, iv, 5 h, 1 mg/kg i.v., AII 0.1 mcg/kg IV, 300 min post dose): 60%
- inhibition in vivo at 0.3 mg/kg (Rattus norvegicus, iv, […], AII 0.05 mcg/kg IV, 90 min post dose): 48%
- inhibition in vivo at 0.3 mg/kg [7]: 29%
- inhibition in vivo at 0.5 mg/kg [7]: 50%
- inhibition in vivo at 1 mg/kg (Rattus norvegicus, iv, […], 1 mg/kg i.v., AII 0.05 mcg/kg IV, 90 min post dose): 83%
- inhibition in vivo at 1 mg/kg (Rattus norvegicus, iv, […], 1 mg/kg i.v., AII 0.1 mcg/kg IV, 90 min post dose): 79%
- inhibition in vivo at 1 mg/kg (Rattus norvegicus, po, 1 h, 1 mg/kg P.O., AII 0.05 mcg/kg IV, 60 min post dose): 62%
- inhibition in vivo at 1 mg/kg (Rattus norvegicus, po, 1 h, 1 mg/kg P.O., AII 0.1 mcg/kg IV, 60 min post dose): 47%
- inhibition in vivo at 1 mg/kg (Rattus norvegicus, po, 2 h, 1 mg/kg P.O., AII 0.05 mcg/kg IV, 120 min post dose): 62%
- inhibition in vivo at 1 mg/kg (Rattus norvegicus, po, 2 h, 1 mg/kg P.O., AII 0.1 mcg/kg IV, 120 min post dose): 40%
- inhibition in vivo at 1 mg/kg (Rattus norvegicus, po, 3 h, 1 mg/kg P.O., AII 0.1 mcg/kg IV, 180 min post dose): 40%
- inhibition in vivo at 1 mg/kg (Rattus norvegicus, po, 5 h, 1 mg/kg P.O., AII 0.05 mcg/kg IV, 300 min post dose): 23%
- inhibition in vivo at 1 mg/kg (Rattus norvegicus, po, 5 h, 1 mg/kg P.O., AII 0.1 mcg/kg IV, 300 min post dose): 40%
- inhibition in vivo at 1 mg/kg (Rattus norvegicus, po, […], 1 mg/kg P.O., AII 0.1 mcg/kg IV, 90 min post dose): 40%
